{"source": "patent US8192962B2", "about": "“Processes for detecting toxic substances” (Daikin Industries, Ltd., priority 2001, dated 2012)", "tested_on": "Genes belonging to other category", "assay": "DNA chip mRNA expression in yeast, genes belonging to other category (Table 9)", "format": "cell-based, Saccharomyces cerevisiae S288C", "outline": "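Expression change after 2 h toxicant exposure (growth-inhibiting, sub-lethal) of log-phase S. cerevisiae S288C at 25° C. Oligo-dT-purified mRNA was labeled with Cy3-dUTP or Cy5-dUTP and hybridized >12 h at 65° C. to a genome-wide chip; ratio of scanned fluorescence to control.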", "data": [{"smiles": "C=CC=O", "note": "[(14), acrolein]", "values": [{"measurement": "The level of expressed mRNA in the presence of chemical substance/The level of expressed mRNA in the absence of chemical substance", "setting": "yeast gene YIR024C", "value": 2.6}, {"measurement": "The level of expressed mRNA in the presence of chemical substance/The level of expressed mRNA in the absence of chemical substance", "setting": "yeast gene YIR039C", "value": 1.9}, {"measurement": "The level of expressed mRNA in the presence of chemical substance/The level of expressed mRNA in the absence of chemical substance", "setting": "yeast gene YJL030W", "value": 2.1}, {"measurement": "The level of expressed mRNA in the presence of chemical substance/The level of expressed mRNA in the absence of chemical substance", "setting": "yeast gene YJL035C", "value": 1.6}, {"measurement": "The level of expressed mRNA in the presence of chemical substance/The level of expressed mRNA in the absence of chemical substance", "setting": "yeast gene YJL053W", "value": 1.3}, {"measurement": "The level of expressed mRNA in the presence of chemical substance/The level of expressed mRNA in the absence of chemical substance", "setting": "yeast gene YJL073W", "value": 1.1}, {"measurement": "The level of expressed mRNA in the presence of chemical substance/The level of expressed mRNA in the absence of chemical substance", "setting": "yeast gene YJL089W", "value": 1.8}, {"measurement": "The level of expressed mRNA in the presence of chemical substance/The level of expressed mRNA in the absence of chemical substance", "setting": "yeast gene YJL116C", "value": 2.6}, {"measurement": "The level of expressed mRNA in the presence of chemical substance/The level of expressed mRNA in the absence of chemical substance", "setting": "yeast gene YJL146W", "value": 1.5}, {"measurement": "The level of expressed mRNA in the presence of chemical substance/The level of expressed mRNA in the absence of chemical substance", "setting": "yeast gene YJL164C", "value": 0.9}, {"measurement": "The level of expressed mRNA in the presence of chemical substance/The level of expressed mRNA in the absence of chemical substance", "setting": "yeast gene YJL210W", "value": 0.9}, {"measurement": "The level of expressed mRNA in the presence of chemical substance/The level of expressed mRNA in the absence of chemical substance", "setting": "yeast gene YJR004C", "value": 0.7}, {"measurement": "The level of expressed mRNA in the presence of chemical substance/The level of expressed mRNA in the absence of chemical substance", "setting": "yeast gene YJR086W", "value": 2.2}, {"measurement": "The level of expressed mRNA in the presence of chemical substance/The level of expressed mRNA in the absence of chemical substance", "setting": "yeast gene YJR099W", "value": 2.1}, {"measurement": "The level of expressed mRNA in the presence of chemical substance/The level of expressed mRNA in the absence of chemical substance", "setting": "yeast gene YKL008C", "value": 0.8}, {"measurement": "The level of expressed mRNA in the presence of chemical substance/The level of expressed mRNA in the absence of chemical substance", "setting": "yeast gene YKL013C", "value": 1.4}, {"measurement": "The level of expressed mRNA in the presence of chemical substance/The level of expressed mRNA in the absence of chemical substance", "setting": "yeast gene YKL039W", "value": 0.8}, {"measurement": "The level of expressed mRNA in the presence of chemical substance/The level of expressed mRNA in the absence of chemical substance", "setting": "yeast gene YKL041W", "value": 1.3}, {"measurement": "The level of expressed mRNA in the presence of chemical substance/The level of expressed mRNA in the absence of chemical substance", "setting": "yeast gene YKL070W", "value": 2.2}, {"measurement": "The level of expressed mRNA in the presence of chemical substance/The level of expressed mRNA in the absence of chemical substance", "setting": "yeast gene YKL096W", "value": 0.5}, {"measurement": "The level of expressed mRNA in the presence of chemical substance/The level of expressed mRNA in the absence of chemical substance", "setting": "yeast gene YKL103C", "value": 2.0}, {"measurement": "The level of expressed mRNA in the presence of chemical substance/The level of expressed mRNA in the absence of chemical substance", "setting": "yeast gene YKL117W", "value": 1.6}, {"measurement": "The level of expressed mRNA in the presence of chemical substance/The level of expressed mRNA in the absence of chemical substance", "setting": "yeast gene YKL139W", "value": 1.0}, {"measurement": "The level of expressed mRNA in the presence of chemical substance/The level of expressed mRNA in the absence of chemical substance", "setting": "yeast gene YKL165C", "value": 0.8}, {"measurement": "The level of expressed mRNA in the presence of chemical substance/The level of expressed mRNA in the absence of chemical substance", "setting": "yeast gene YKL193C", "value": 1.2}, {"measurement": "The level of expressed mRNA in the presence of chemical substance/The level of expressed mRNA in the absence of chemical substance", "setting": "yeast gene YKL196C", "value": 2.5}, {"measurement": "The level of expressed mRNA in the presence of chemical substance/The level of expressed mRNA in the absence of chemical substance", "setting": "yeast gene YKR014C", "value": 1.8}, {"measurement": "The level of expressed mRNA in the presence of chemical substance/The level of expressed mRNA in the absence of chemical substance", "setting": "yeast gene YKR098C", "value": 1.4}, {"measurement": "The level of expressed mRNA in the presence of chemical substance/The level of expressed mRNA in the absence of chemical substance", "setting": "yeast gene YLR093C", "value": 1.3}, {"measurement": "The level of expressed mRNA in the presence of chemical substance/The level of expressed mRNA in the absence of chemical substance", "setting": "yeast gene YLR107W", "value": 1.6}, {"measurement": "The level of expressed mRNA in the presence of chemical substance/The level of expressed mRNA in the absence of chemical substance", "setting": "yeast gene YLR118C", "value": 1.5}, {"measurement": "The level of expressed mRNA in the presence of chemical substance/The level of expressed mRNA in the absence of chemical substance", "setting": "yeast gene YLR120C", "value": 0.8}, {"measurement": "The level of expressed mRNA in the presence of chemical substance/The level of expressed mRNA in the absence of chemical substance", "setting": "yeast gene YLR136C", "value": 0.7}, {"measurement": "The level of expressed mRNA in the presence of chemical substance/The level of expressed mRNA in the absence of chemical substance", "setting": "yeast gene YLR178C", "value": 2.8}, {"measurement": "The level of expressed mRNA in the presence of chemical substance/The level of expressed mRNA in the absence of chemical substance", "setting": "yeast gene YLR250W", "value": 2.5}, {"measurement": "The level of expressed mRNA in the presence of chemical substance/The level of expressed mRNA in the absence of chemical substance", "setting": "yeast gene YLR251W", "value": 1.3}, {"measurement": "The level of expressed mRNA in the presence of chemical substance/The level of expressed mRNA in the absence of chemical substance", "setting": "yeast gene YLR266C", "value": 1.0}, {"measurement": "The level of expressed mRNA in the presence of chemical substance/The level of expressed mRNA in the absence of chemical substance", "setting": "yeast gene YLR327C", "value": 1.5}, {"measurement": "The level of expressed mRNA in the presence of chemical substance/The level of expressed mRNA in the absence of chemical substance", "setting": "yeast gene YLR356W", "value": 2.2}, {"measurement": "The level of expressed mRNA in the presence of chemical substance/The level of expressed mRNA in the absence of chemical substance", "setting": "yeast gene YLR362W", "value": 1.2}, {"measurement": "The level of expressed mRNA in the presence of chemical substance/The level of expressed mRNA in the absence of chemical substance", "setting": "yeast gene YLR391W", "value": 0.5}, {"measurement": "The level of expressed mRNA in the presence of chemical substance/The level of expressed mRNA in the absence of chemical substance", "setting": "yeast gene YLR429W", "value": 0.7}, {"measurement": "The level of expressed mRNA in the presence of chemical substance/The level of expressed mRNA in the absence of chemical substance", "setting": "yeast gene YML092C", "value": 1.6}, {"measurement": "The level of expressed mRNA in the presence of chemical substance/The level of expressed mRNA in the absence of chemical substance", "setting": "yeast gene YMR004W", "value": 2.2}, {"measurement": "The level of expressed mRNA in the presence of chemical substance/The level of expressed mRNA in the absence of chemical substance", "setting": "yeast gene YMR027W", "value": 0.9}, {"measurement": "The level of expressed mRNA in the presence of chemical substance/The level of expressed mRNA in the absence of chemical substance", "setting": "yeast gene YMR091C", "value": 1.5}, {"measurement": "The level of expressed mRNA in the presence of chemical substance/The level of expressed mRNA in the absence of chemical substance", "setting": "yeast gene YMR094W", "value": 2.8}]}]}
